{"source": "patent US5723109A", "about": "“Use of salicyclic acid derivatives for depigmenting the skin” (L'Oreal, priority 1995, dated 1998)", "test_system": "tyrosinase from human melanocytes", "experiment": "dopa-oxidase activity of tyrosinase from human melanocytes", "format": "cell-based", "experimental": "Human melanocytes were prepared and cultured and then introduced into media containing different concentrations of 5-(n-octanoyl)salicylic acid (0.5 μM, 1 μM, 2 μM and 5 μM).\nAfter three days, the melanocytes were \"trypsinizated\" in a 0.05%/0.02% trypsin/EDTA mixture in a phosphate buffer (50 mM at pH 6.8), washed three times in phosphate buffer containing 1% (w/v) of TRITON X-100 and subjected to ultrasound. After centrifuging, samples were withdrawn and mixed with 5 mM L-DOPA in phosphate buffer. The tyrosinase activity was evaluated by spectrophotometry. The increase in the absorbance at 475 nm is due to the formation of dopachrome from 5 mM DOPA being measured. The absorbance was read on a microplate reader at 25° C. for 60 min.\nThe activity of the cellular tyrosinase was measured with respect to a calibration range prepared with commercially available tyrosinase."}
{"smiles": "CCCCCCCC(=O)c1ccc(O)c(C(=O)O)c1", "note": "[5-(n-octanoyl)salicylic acid]", "values": [{"measurement": "decrease of dopa-oxidase activity of the tyrosinase from the melanocytes", "setting": "concentration of 5 μM, three days", "result": "more particularly pronounced"}, {"measurement": "dopa-oxidase activity of the tyrosinase from the melanocytes (percentage of activity with respect to the starting activity, FIG. 1)", "setting": "human melanocytes cultured three days with 0.5 μM, 1 μM, 2 μM and 5 μM, 5 mM L-DOPA, absorbance at 475 nm", "result": "significantly decreases"}]}
